Here are results for 3 compounds from patent US10906864B2, “Nitroalkene non steroidal anti-inflammatory drugs (NA-NSAIDS) and methods of treating inflammation related conditions” (Institut Pasteur de Montevideo, priority 2017, dated 2021).

Test [1] concerns NF-κB and inflammasome function in macrophages (THP-1 cells). The experiment in a line: IL-1β secretion by ELISA in PMA-differentiated THP-1 macrophages stimulated with LPS and ATP. The format is cell-based. As to the method: In order to compare benzoic acid (BA) and nitroalkene benzoic acid (BANA) over NF-κB and inflammasome function in macrophages, THP-1 cells were differentiated into macrophages with PMA (200 nM, 48 h). Cells were then stimulated with LPS (250 ng/mL) and with ATP (5 mM, 45 minutes). Together with LPS (1st signal, FIG. 6) or ATP (2nd signal, FIG. 7), cells were treated with Benzoic acid (30 μM) or BANA (30 μM). Supernatants were collected and IL-1β secretion was measured by ELISA. […] Thus, BANA inhibits both the generation of the inflammasome, and inhibits the inflammasome itself. Further exemplary studies were performed with Flufenamate (FluFE) and nitroalkene flufenamate (FluFENA). In order to study the effect of Flufenamate (FluFE) and FluFENA over NF-κB and inflammasome function in macrophages, THP-1 cells were differentiated into macrophages with PMA (200 nM, 48 h). Cells were stimulated with LPS (250 ng/mL) and then with ATP (5 mM, 45 minutes). […] Cells were stimulated with LPS (250 ng/mL) and then with ATP (5 mM, 45 minutes). Together with LPS (1st signal, FIG. 10) or ATP (2nd signal, FIG. 11), cells were treated with Ibuprofen (20 μM) or IBUNA ([…] were collected and IL-1β secretion was measured by ELISA.

Test [2] has as its system in vivo model of peritonitis. The experiment in a line: In vivo model of peritonitis (LPS-induced inflammatory response), IL-1β by ELISA. Details: species or system Mice. The protocol:
Mice were treated with BANA, Benzoic Acid (50 mg/kg, IP) or the vehicle (100 mM Phosphate buffer 10% DMSO) for 1 hour. Then were injected with LPS (10 mg/kg, IP) or PBS for 2 hours. Mice were collected for peritoneal wash and blood samples were extracted. The peritoneal wash and plasma were stored to measure IL-1β by ELISA. The values are show as mean±SD from three mice per condition and we have used the statistic test one-way ANOVA with Bonferroni.

Where [3] appears, read: mice, 50 mg/kg IP 1 hour before LPS 10 mg/kg IP for 2 hours, as opposed to BA.

With `O=C(O)c1ccc(/C=C/[N+](=O)[O-])cc1` [BANA, (E)-4-(2-nitrovinyl)benzoic acid], in test [1] (30 μM, LPS 250 ng/mL then ATP 5 mM 45 minutes, FIG. 6), the “IL-1β secretion, treatment together with LPS (1st signal)” value was “inhibition of IL-1β secretion in cells stimulated by LPS”. The “IL-1β secretion, treatment together with ATP (2nd signal)” value in test [1] (30 μM, LPS 250 ng/mL then ATP 5 mM 45 minutes, FIG. 7) was “inhibition of IL-1β secretion in cells stimulated by ATP”. For the same compound, in test [2] (in vivo), the “IL-1β release in LPS-induced inflammatory response (FIG. 12 legend)” value is on record as “in vivo inhibition of IL-1β release”. For the same compound, in test [2] (setting [3]), the “level of IL-1β in blood plasma” value was “marked decrease” and the “level of IL-1β in peritoneal wash” value is recorded as “marked decrease”.

`CC(C)Cc1ccc(C(C)C(=O)O)cc1/C=C/[N+](=O)[O-]` (stereo not shown) [IBUNA, (E)-2-(4-isobutyl-3-(2-nitrovinyl)phenyl)propanoic acid]: the “IL-1β secretion, treatment together with LPS (1st signal) or ATP (2nd signal), versus Ibuprofen” value in test [1] (Ibuprofen (20 μM) or IBUNA (20), FIG. 10 and FIG. 11) was “unexpected superiority”.

Turning to `O=C(O)c1cc(/C=C/[N+](=O)[O-])ccc1Nc1cccc(C(F)(F)F)c1` [FluFENA, (E)-5-(2-nitrovinyl)-2-((3-(trifluoromethyl)phenyl)amino)benzoic acid], the “IL-1β secretion, treatment together with LPS (1st signal) or ATP (2nd signal), versus Flufenamate (FluFE)” value in test [1] (FluFE (5 μM) or FluFENA (5), FIG. 8 and FIG. 9) is reported as “unexpected advantage”.
